Assay results published in ChEMBL document CHEMBL1145883, “Lysine sulfonamides as novel HIV-protease inhibitors: optimization of the Nepsilon-acyl-phenyl spacer” (Bioorg Med Chem Lett, 2003).

Legend:
[1] = molecular target: Human immunodeficiency virus type 1 protease (Human immunodeficiency virus 1, UniProt Q72874); experiment: Inhibitory activity against HIV-1 protease
[2] = system: Human immunodeficiency virus 1; experiment: Antiviral activity; assay type: functional, organism-based

SMILES	Ki [1]	EC50 [2]
Cc1ccc(S(=O)(=O)N(CC(C)C)[C@@H](CCCCNC(=O)CN(Cc2ccccc2)c2ccccc2)C(=O)O)cc1	0.72 nM	–
CC(C)CN([C@H](CO)CCCCNC(=O)CN(Cc1ccc(F)cc1)c1ccccc1)S(=O)(=O)c1ccc(N)cc1	2.3 nM	1000 nM
Cc1ccc(S(=O)(=O)N(CC(C)C)[C@@H](CCCCNC(=O)Cc2ccccc2)C(=O)O)cc1	> 300 nM	–
CC(C)CN([C@H](CO)CCCCNC(=O)CN(Cc1ccccc1[N+](=O)[O-])c1ccccc1)S(=O)(=O)c1ccc(N)cc1	1.5 nM	341 nM
CC(C)CN([C@H](CO)CCCCNC(=O)CN(Cc1cccc(F)c1)c1ccccc1)S(=O)(=O)c1ccc(N)cc1	1.1 nM	1100 nM
CC(C)CN([C@H](CO)CCCCNC(=O)CN(Cc1ccccc1F)c1ccccc1)S(=O)(=O)c1ccc(N)cc1	2.3 nM	2200 nM
Cc1ccc(S(=O)(=O)N(CC(C)C)[C@H](CO)CCCCNC(=O)CN(c2ccccc2)c2ccccc2)cc1	12 nM	6700 nM
Cc1ccc(S(=O)(=O)N(CC(C)C)[C@H](CO)CCCCNC(=O)CN(Cc2ccccc2[N+](=O)[O-])c2ccccc2)cc1	3.9 nM	3500 nM
Cc1ccc(S(=O)(=O)N(CC(C)C)[C@@H](CCCCNC(=O)CSc2ccccc2)C(=O)O)cc1	18 nM	–
COc1cccc(CN(CC(=O)NCCCC[C@@H](CO)N(CC(C)C)S(=O)(=O)c2ccc(C)cc2)c2ccccc2)c1OC	2.4 nM	760 nM
CC(C)CN([C@H](CO)CCCCNC(=O)CN(Cc1ccc([N+](=O)[O-])cc1)c1ccccc1)S(=O)(=O)c1ccc(N)cc1	0.59 nM	540 nM
COc1ccc(CN(CC(=O)NCCCC[C@@H](CO)N(CC(C)C)S(=O)(=O)c2ccc(C)cc2)c2ccccc2)cc1	7.3 nM	> 10000 nM
Cc1ccc(S(=O)(=O)N(CC(C)C)[C@@H](CCCCNC(=O)CCCc2ccccc2)C(=O)O)cc1	> 300 nM	–
Cc1ccc(S(=O)(=O)N(CC(C)C)[C@@H](CCCCNC(=O)COc2ccccc2)C(=O)O)cc1	18 nM	–
Cc1ccc(S(=O)(=O)N(CC(C)C)[C@@H](CCCCNC(=O)N(C)Cc2ccccc2)C(=O)O)cc1	55 nM	–
Cc1ccc(S(=O)(=O)N(CC(C)C)[C@@H](CCCCNC(=O)[C@@H](O)Cc2ccccc2)C(=O)O)cc1	6.2 nM	–
Cc1ccc(S(=O)(=O)N(CC(C)C)[C@@H](CCCCNC(=O)CS(=O)(=O)c2ccccc2)C(=O)O)cc1	20 nM	–
Cc1ccc(S(=O)(=O)N(CC(C)C)[C@@H](CCCCNC(=O)c2ccccc2)C(=O)O)cc1	> 300 nM	–
Cc1ccc(S(=O)(=O)N(CC(C)C)[C@@H](CCCCNC(=O)CNc2ccccc2)C(=O)O)cc1	7.8 nM	–
Cc1ccc(S(=O)(=O)N(CC(C)C)[C@@H](CCCCNC(=O)C(=O)Cc2ccccc2)C(=O)O)cc1	14 nM	–
Cc1ccc(S(=O)(=O)N(CC(C)C)[C@@H](CCCCNC(=O)C(c2ccccc2)c2ccccc2)C(=O)O)cc1	171 nM	–
Cc1ccc(S(=O)(=O)N(CC(C)C)[C@@H](CCCCNC(=O)C(Cc2ccccc2)C(C)(C)C)C(=O)O)cc1 (stereo partly specified)	> 300 nM	–

SMILES	Ki [1]	EC50 [2]
Cc1ccc(S(=O)(=O)N(CC(C)C)[C@H](CO)CCCCNC(=O)CN(Cc2ccccc2)c2ccccc2)cc1	7.6 nM	4200 nM
COc1cccc(CN(CC(=O)NCCCC[C@@H](CO)N(CC(C)C)S(=O)(=O)c2ccc(N)cc2)c2ccccc2)c1OC	–	340 nM
Cc1ccc(S(=O)(=O)N(CC(C)C)[C@H](CO)CCCCNC(=O)CN(Cc2cccc([N+](=O)[O-])c2)c2ccccc2)cc1	1.4 nM	730 nM
Cc1ccc(S(=O)(=O)N(CC(C)C)[C@@H](CCCCNC(=O)N(Cc2ccccc2)Cc2ccccc2)C(=O)O)cc1	8 nM	–
CC(C)CN([C@H](CO)CCCCNC(=O)CN(Cc1cccc([N+](=O)[O-])c1)c1ccccc1)S(=O)(=O)c1ccc(N)cc1	1.2 nM	339 nM
COc1ccc(CN(CC(=O)NCCCC[C@@H](CO)N(CC(C)C)S(=O)(=O)c2ccc(N)cc2)c2ccccc2)cc1OC	2.9 nM	366 nM
Cc1ccc(S(=O)(=O)N(CC(C)C)[C@@H](CCCCNC(=O)[C@@H](N)Cc2ccccc2)C(=O)O)cc1	1.5 nM	–
CC(C)CN([C@H](CO)CCCCNC(=O)CN(Cc1cccc(N)c1)c1ccccc1)S(=O)(=O)c1ccc(N)cc1	6.9 nM	524 nM
Cc1ccc(S(=O)(=O)N(CC(C)C)[C@@H](CCCCNC(=O)/C=C/c2ccccc2)C(=O)O)cc1	> 300 nM	–
Cc1ccc(S(=O)(=O)N(CC(C)C)[C@@H](CCCCNC(=O)C2CC2c2ccccc2)C(=O)O)cc1 (stereo partly specified)	> 300 nM	–
Cc1ccc(S(=O)(=O)N(CC(C)C)[C@@H](CCCCNC(=O)CCc2ccccc2)C(=O)O)cc1	6.9 nM	–
Cc1ccc(S(=O)(=O)N(CC(C)C)[C@@H](CCCCNC(=O)NCc2ccccc2)C(=O)O)cc1	32 nM	–
COc1ccc(CN(CC(=O)NCCCC[C@@H](CO)N(CC(C)C)S(=O)(=O)c2ccc(C)cc2)c2ccccc2)cc1OC	3.5 nM	1300 nM
CN[C@@H](Cc1ccccc1)C(=O)NCCCC[C@@H](C(=O)O)N(CC(C)C)S(=O)(=O)c1ccc(C)cc1	2.1 nM	–
CC(C)CN([C@H](CO)CCCCNC(=O)CN(Cc1ccccc1)c1ccccc1)S(=O)(=O)c1ccc(N)cc1	2.4 nM	–
Cc1ccc(S(=O)(=O)N(CC(C)C)[C@H](CO)CCCCNC(=O)CN(CCc2ccccc2)c2ccccc2)cc1	52 nM	> 10000 nM
Cc1ccc(S(=O)(=O)N(CC(C)C)[C@H](CO)CCCCNC(=O)CN(c2ccccc2)C(C)C)cc1	16 nM	1100 nM
COc1ccc(CN(CC(=O)NCCCC[C@@H](CO)N(CC(C)C)S(=O)(=O)c2ccc(N)cc2)c2ccccc2)cc1	2.4 nM	–
Cc1ccc(S(=O)(=O)N(CC(C)C)[C@@H](CCCCNC(=O)OCc2ccccc2)C(=O)O)cc1	> 300 nM	–
Cc1ccc(S(=O)(=O)N(CC(C)C)[C@@H](CCCCNC(=O)CN(C)c2ccccc2)C(=O)O)cc1	12 nM	–
Cc1ccc(S(=O)(=O)N(CC(C)C)[C@H](CO)CCCCNC(=O)CN(Cc2cccc(N)c2)c2ccccc2)cc1	7.6 nM	3000 nM
